Laboratory results as given in patent US20130190324A1, “TOPICAL OCULAR DRUG DELIVERY” (The Regents of the University of Colorado, a body corporate, priority 2011, published 2013).
≈ marks a conversion by molar mass, not a printed value.

Legend:
[1] = system: New Zealand white rabbit cornea; test: In vitro transport across rabbit cornea (Ussing chamber); assay type: in vitro ADME
Description: (§1) In vitro transport of […], and GFX-LYS were carried out across the New Zealand white rabbit cornea and sclera-choroid-[…]). Rabbit eyes were obtained within 24 hr of harvesting from Pel-Freez Biologicals (Rogers, Ark.) and shipped overnight in Hank's balanced salt solution on wet ice. Eyes were used immediately upon arrival. Eyes were washed with assay buffer and cleaned from the muscle and unwanted tissues. […] The small part of the sclera left with cornea helps in mounting the cornea on Ussing chambers. For isolation of the SCRPE, anterior and posterior parts were separated by a circumferential cut at the limbus. […] After separation of the retina, the eye cup was flattened with small cuts around the globe. […] A circulating water bath was used to maintain the temperature at 37° C. during the transport study. The pH of the assay buffer was maintained at 7.4 using 95% air-5% CO2 aeration which also helps in stirring of bathing solutions. Samples were collected (200 μL) from the receiver side every 30 minute for 3 hr and the lost volume was replaced with fresh assay buffer pre-equilibrated at 37° C. GFX levels were analyzed using an LC-MS/MS assay. […] GFX concentrations in the transport study and ocular tissue samples were analyzed using a validated LC-MS/MS method. […] Chromatographic separation of GFX and the internal standard moxifloxacin was performed on Obelisc C18 column (2.1×10 mm, 3 μm). Elution of analytes was performed using linear gradient elution with mobile phase consisting of 5 mM ammonium formate (pH 3.5) and acetonitrile (pH 3.5) with a flow rate of 300 μl/min and total run time of 6 min.

[2] = system: New Zealand white rabbit sclera-choroid-RPE (SCRPE); test: In vitro transport across rabbit sclera-choroid-RPE (Ussing chamber); assay type: in vitro ADME; conditions: rabbit SCRPE
Description: as §1

| SMILES | solubility (physchem; water for injection) | solubility (physchem; water) | cumulative % transport / permeability compared with GFX (in words) [1] | cumulative % transport / permeability compared with GFX (in words) [2] |
| --- | --- | --- | --- | --- |
| COc1c(N2CCN(C(=O)C(N)CC(C)C)C(C)C2)c(F)cc2c(=O)c(C(=O)O)cn(C3CC3)c12 (stereo not drawn) [GFX-LEU, 7-(4-(2-amino-4-methylpentanoyl)-3-methylpiperazin-1-yl)-1-cyclopropyl-6-fluoro-8-methoxy-4-oxo-1,4-dihydroquinoline-3-carboxylic acid] | 2.16 mg/mL (≈ 4420 µM) | – | – | – |
| Cc1ccc(-c2cc(C(F)(F)F)nn2-c2ccc(S(=O)(=O)NC(=O)CCCC(=O)O)cc2)cc1 [CXB-MCT, 5-oxo-5-(4-(5-(p-tolyl)-3-(trifluoromethyl)-1H-pyrazol-1-yl)phenylsulfonamido)pentanoic acid] | 0.62 mg/mL (≈ 1250 µM) | – | – | – |
| Cc1ccc(-c2cc(C(F)(F)F)nn2-c2ccc(S(=O)(=O)NC(=O)CCCN(C)C)cc2)cc1 [CXB-OCT, 4-(dimethylamino)-N-((4-(5-(p-tolyl)-3-(trifluoromethyl)-1H-pyrazol-1-yl)phenyl)sulfonyl)butanamide] | 3.22 mg/mL (≈ 6510 µM) | – | – | – |
| COc1c(N2CCN(C(=O)C(N)CCCCN)C(C)C2)c(F)cc2c(=O)c(C(=O)O)cn(C3CC3)c12 (stereo not drawn) [GFX-LYS, 1-cyclopropyl-7-(4-(2,6-diaminohexanoyl)-3-methylpiperazin-1-yl)-6-fluoro-8-methoxy-4-oxo-1,4-dihydroquinoline-3-carboxylic acid] | 48 mg/mL (≈ 95300 µM) | 48 mg/mL (≈ 95300 µM) | not significantly different from GFX | not significantly different from GFX |

Other lines, results leading:

| solubility (physchem; water for injection) | solubility (physchem; water) | cumulative % transport / permeability compared with GFX (in words) [1] | cumulative % transport / permeability compared with GFX (in words) [2] | SMILES |
| --- | --- | --- | --- | --- |
| 0.035 mg/mL (≈ 65.1 µM) | 0.035 mg/mL (≈ 65.1 µM) | – | – | Cc1ccc(-c2cc(C(F)(F)F)nn2-c2ccc(S(=O)(=O)NC(=O)C(N)CCCNC(=N)N)cc2)cc1 (stereo not drawn) [CXB-ARG] |
| 0.05 mg/mL (≈ 98.1 µM) | 0.05 mg/mL (≈ 98.1 µM) | – | – | Cc1ccc(-c2cc(C(F)(F)F)nn2-c2ccc(S(=O)(=O)NC(=O)C(N)CCCCN)cc2)cc1 (stereo not drawn) [CXB-LYS, 2,6-diamino-N-(4-(5-p-tolyl-3-(trifluoromethyl)-1H-pyrazol-1-yl)phenylsulfonyl)hexanamide] |
| 0.016 mg/mL (≈ 32.4 µM) | – | – | – | Cc1ccc(-c2cc(C(F)(F)F)nn2-c2ccc(S(=O)(=O)NC(=O)C(N)CC(C)C)cc2)cc1 (stereo not drawn) [CXB-LEU] |
